Where “and” joins values, the source holds several entries; their conditions need not be identical. Equal values may be shown once. Toxic doses and inconclusive results are not listed. Square brackets hold non-standard residues; d marks the D form. Peptide text beside a SMILES is read from it. ξ: configuration not given here. ξE = NC(CCC(=O)O)C(=O)O
System: P388 leukemia ip, CD2F1 mice, survival T/C
Experiment: NCI In Vivo Anticancer Drug Screen. Data for tumor model P388 Leukemia (intraperitoneal) in CD2F1 (CDF1) mice
Settings: endpoint: median survival time, higher = longer survival
How it was run: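 Mice carrying the transplanted tumor received test compound or vehicle. Survival was recorded in each group, and the value is the treated-group measurement divided by that of the vehicle-treated control group.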

[1] = dose: 6.25 mg/kg/injection, schedule: Q01DX009 (ip), vehicle: saline with Tween-80
[2] = dose: 12.5 mg/kg/injection, schedule: Q01DX009 (ip), vehicle: saline with Tween-80
[3] = dose: 50.0 mg/kg/injection, schedule: Q01DX005 (ip), vehicle: saline with Tween-80
[4] = dose: 100.0 mg/kg/injection, schedule: Q01DX005 (ip), vehicle: saline with Tween-80
[5] = dose: 200.0 mg/kg/injection, schedule: Q01DX005 (ip), vehicle: saline with Tween-80
[6] = dose: 50.0 mg/kg/injection, schedule: Q01DX009 (ip), vehicle: saline
[7] = dose: 50.0 mg/kg/injection, schedule: Q01DX005 (ip), vehicle: Klucel (hydroxypropylcellulose) (HPC)
[8] = dose: 100.0 mg/kg/injection, schedule: Q01DX005 (ip), vehicle: Klucel (hydroxypropylcellulose) (HPC)
[9] = dose: 200.0 mg/kg/injection, schedule: Q01DX005 (ip), vehicle: Klucel (hydroxypropylcellulose) (HPC)
[10] = dose: 25.0 mg/kg/injection, schedule: Q01DX009 (ip), vehicle: saline with Tween-80
[11] = dose: 50.0 mg/kg/injection, schedule: Q01DX009 (ip), vehicle: saline with Tween-80
[12] = dose: 100.0 mg/kg/injection, schedule: Q01DX009 (ip), vehicle: saline with Tween-80
[13] = dose: 200.0 mg/kg/injection, schedule: Q01DX009 (ip), vehicle: saline with Tween-80
[14] = dose: 50.0 mg/kg/injection, schedule: Q01DX009 (ip), vehicle: Klucel (hydroxypropylcellulose) (HPC)
[15] = dose: 100.0 mg/kg/injection, schedule: Q01DX009 (ip), vehicle: Klucel (hydroxypropylcellulose) (HPC)
[16] = dose: 200.0 mg/kg/injection, schedule: Q01DX009 (ip), vehicle: Klucel (hydroxypropylcellulose) (HPC)
[17] = dose: 60.0 mg/kg/injection, schedule: Q01DX005 (ip), vehicle: saline with Tween-80
[18] = dose: 120.0 mg/kg/injection, schedule: Q01DX005 (ip), vehicle: saline with Tween-80

C/C(=N\NC(=S)N1CCCCCC1)c1ccccn1
T/C (dose: 0.78 mg/kg/injection, schedule: Q01DX009 (ip), vehicle: saline with Tween-80): 99 % of control and 96 % of control | T/C (dose: 1.56 mg/kg/injection, schedule: Q01DX009 (ip), vehicle: saline with Tween-80): 99 % of control and 103 % of control | T/C (dose: 3.12 mg/kg/injection, schedule: Q01DX009 (ip), vehicle: saline with Tween-80): 90 % of control | T/C (dose: 3.13 mg/kg/injection, schedule: Q01DX009 (ip), vehicle: saline with Tween-80): 121 % of control and 95 % of control | T/C [1]: 100 % of control and 112 % of control and 117 % of control | T/C [2]: 103 % of control

NCC(=O)NCC(=O)NC(CCC(=O)O)C(=O)O (stereo not drawn) (H-Gly-Gly-[ξE]-OH)
T/C (dose: 50.0 mg/kg/injection, schedule: Q01DX005 (ip), vehicle: saline): 100 % of control | T/C (dose: 100.0 mg/kg/injection, schedule: Q01DX005 (ip), vehicle: saline): 101 % of control | T/C (dose: 200.0 mg/kg/injection, schedule: Q01DX005 (ip), vehicle: saline): 104 % of control

Cc1ccc(N=Nc2c(O)n(-c3ccc(Br)cc3)c(=S)n(-c3ccccc3)c2=O)cc1
T/C (dose: 100.0 mg/kg/injection, schedule: Q01DX001 (ip), vehicle: saline with Tween-80): 95 % of control | T/C (dose: 200.0 mg/kg/injection, schedule: Q01DX001 (ip), vehicle: saline with Tween-80): 100 % of control | T/C (dose: 400.0 mg/kg/injection, schedule: Q01DX001 (ip), vehicle: saline with Tween-80): 90 % of control

O=C1C=CC(=O)N1c1cccc2c1CCCC2
T/C [1]: 105 % of control | T/C [2]: 114 % of control

NC(=S)n1nc(-c2ccccc2)c(N=Nc2ccccc2Cl)c1-c1ccccc1
T/C [3]: 117 % of control | T/C [4]: 111 % of control | T/C [5]: 108 % of control

COC(=O)c1cc(=O)n(-c2ccc(OC)cc2)c(SC)n1
T/C (dose: 100.0 mg/kg/injection, schedule: Q04DX003 (ip), vehicle: saline with Tween-80): 100 % of control | T/C (dose: 200.0 mg/kg/injection, schedule: Q04DX003 (ip), vehicle: saline with Tween-80): 91 % of control

Cc1onc(-c2c(F)cccc2Cl)c1C(=O)N[C@@H]1C(=O)N2[C@@H]1SC(C)(C)[C@@H]2C(=O)O
T/C [6]: 102 % of control | T/C (dose: 100.0 mg/kg/injection, schedule: Q01DX009 (ip), vehicle: saline): 105 % of control | T/C (dose: 200.0 mg/kg/injection, schedule: Q01DX009 (ip), vehicle: saline): 107 % of control

S=C(Nc1ccc(Br)cc1)SCc1ccco1
T/C (dose: 12.5 mg/kg/injection, schedule: Q01DX009 (ip), vehicle: saline): 106 % of control | T/C (dose: 25.0 mg/kg/injection, schedule: Q01DX009 (ip), vehicle: saline): 106 % of control | T/C [6]: 100 % of control | T/C (dose: 50.0 mg/kg/injection, schedule: Q01DX009 (ip), vehicle: suspension in saline): 104 % of control | T/C (dose: 100.0 mg/kg/injection, schedule: Q01DX009 (ip), vehicle: suspension in saline): 93 % of control | T/C (dose: 200.0 mg/kg/injection, schedule: Q01DX009 (ip), vehicle: suspension in saline): 111 % of control

C=Cc1nc(N)nc(-c2ccc(C)cc2)n1
T/C [7]: 110 % of control | T/C [8]: 111 % of control | T/C [9]: 118 % of control

C=C1C(=O)O[C@@H]2C[C@@]3(C)CCC[C@H](C)C3=C[C@H]12
T/C [10]: 94 % of control | T/C [11]: 98 % of control | T/C [12]: 100 % of control | T/C [13]: 100 % of control

CC(Sc1ccccn1)C(=O)c1ccccc1 (stereo unspecified)
T/C [3]: 102 % of control | T/C [4]: 109 % of control | T/C [5]: 102 % of control

OCc1ccccc1
T/C (dose: 0.12 % in 0.5 ml injection vol, schedule: Q01DX009 (ip), vehicle: water): 94 % of control | T/C (dose: 0.25 % in 0.5 ml injection vol, schedule: Q01DX009 (ip), vehicle: water): 94 % of control | T/C (dose: 0.5 % in 0.5 ml injection vol, schedule: Q01DX009 (ip), vehicle: water): 100 % of control and 103 % of control | T/C (dose: 1.0 % in 0.5 ml injection vol, schedule: Q01DX009 (ip), vehicle: water): 95 % of control and 98 % of control | T/C (dose: 2.0 % in 0.5 ml injection vol, schedule: Q01DX009 (ip), vehicle: water): 98 % of control

O=C(CCCC(=O)Nc1ccc2[nH]c3ccccc3c(=O)c2c1)Nc1ccc2[nH]c3ccccc3c(=O)c2c1
T/C (dose: 60.0 mg/kg/injection, schedule: Q01DX005 (ip), vehicle: Klucel (hydroxypropylcellulose) (HPC)): 92 % of control | T/C (dose: 120.0 mg/kg/injection, schedule: Q01DX005 (ip), vehicle: Klucel (hydroxypropylcellulose) (HPC)): 94 % of control

C=C1C(=O)O[C@H]2CC3=CCC[C@H](C)[C@@]3(C)C[C@@H]12
T/C (dose: 2.25 mg/kg/injection, schedule: Q01DX005 (ip), vehicle: Klucel (hydroxypropylcellulose) (HPC)): 100 % of control | T/C (dose: 4.5 mg/kg/injection, schedule: Q01DX005 (ip), vehicle: Klucel (hydroxypropylcellulose) (HPC)): 96 % of control | T/C (dose: 9.0 mg/kg/injection, schedule: Q01DX005 (ip), vehicle: Klucel (hydroxypropylcellulose) (HPC)): 99 % of control | T/C (dose: 18.0 mg/kg/injection, schedule: Q01DX005 (ip), vehicle: Klucel (hydroxypropylcellulose) (HPC)): 101 % of control | T/C (dose: 36.0 mg/kg/injection, schedule: Q01DX005 (ip), vehicle: Klucel (hydroxypropylcellulose) (HPC)): 99 % of control

NC(COC(c1ccccc1)(c1ccccc1)c1ccccc1)C(=O)O (stereo unspecified)
T/C (dose: 100.0 mg/kg/injection, schedule: Q04DX003 (ip), vehicle: saline): 118 % of control | T/C (dose: 200.0 mg/kg/injection, schedule: Q04DX003 (ip), vehicle: saline): 154 % of control

Cc1ccc(C(=O)Nc2ccccn2)cc1
T/C [14]: 100 % of control | T/C [15]: 93 % of control | T/C [16]: 100 % of control

CC12C(=O)OC(=O)C1(O)C1c3ccccc3C2c2ccccc21 (stereo unspecified)
T/C [7]: 101 % of control | T/C [8]: 101 % of control | T/C [9]: 101 % of control

COc1ccc(C2OC(=O)c3ncccc32)cc1 (stereo unspecified)
T/C [11]: 102 % of control | T/C [12]: 104 % of control | T/C [13]: 104 % of control

O=C(Cc1cccc(CC(=O)c2ccccc2)n1)c1ccccc1
T/C (dose: 15.0 mg/kg/injection, schedule: Q01DX005 (ip), vehicle: saline with Tween-80): 108 % of control | T/C (dose: 30.0 mg/kg/injection, schedule: Q01DX005 (ip), vehicle: saline with Tween-80): 92 % of control | T/C [17]: 92 % of control and 93 % of control

O=C1CSC(=Nc2ccccc2)N1c1ncccn1
T/C [14]: 103 % of control | T/C [15]: 102 % of control | T/C [16]: 102 % of control

O=[N+]([O-])c1ccc2nc(Cl)sc2c1
T/C [10]: 95 % of control | T/C [11]: 90 % of control | T/C [12]: 109 % of control

COc1cc(/C=C/C(=O)CC(=O)/C=C/c2ccc(O)c(OC)c2)ccc1O
T/C [1]: 103 % of control | T/C [2]: 100 % of control | T/C [10]: 100 % of control | T/C [11]: 94 % of control

CCCCCCCCCC(=O)Oc1c2ccoc2cc2oc(=O)ccc12
T/C (dose: 100.0 mg/kg/injection, schedule: Q01DX001 (ip), vehicle: Klucel (hydroxypropylcellulose) (HPC)): 98 % of control | T/C (dose: 200.0 mg/kg/injection, schedule: Q01DX001 (ip), vehicle: Klucel (hydroxypropylcellulose) (HPC)): 91 % of control | T/C (dose: 400.0 mg/kg/injection, schedule: Q01DX001 (ip), vehicle: Klucel (hydroxypropylcellulose) (HPC)): 103 % of control

Cc1cnnc2ccccc12
T/C [2]: 98 % of control | T/C [10]: 106 % of control | T/C [11]: 106 % of control

COC(=O)C1CP2(C)(C)N(C)C(=O)N2C1(c1ccccc1)c1ccccc1 (stereo unspecified)
T/C [7]: 102 % of control | T/C [8]: 102 % of control | T/C [9]: 112 % of control

COc1nc(NC2OC(CO)C(O)C2O)cc(=O)n1C (stereo unspecified)
T/C [17]: 93 % of control | T/C [18]: 94 % of control

C1CN(/N=N/N2CCC2)C1
T/C (dose: 6.25 mg/kg/injection, schedule: Q01DX005 (ip), vehicle: Klucel (hydroxypropylcellulose) (HPC)): 98 % of control | T/C (dose: 12.5 mg/kg/injection, schedule: Q01DX005 (ip), vehicle: Klucel (hydroxypropylcellulose) (HPC)): 100 % of control | T/C (dose: 25.0 mg/kg/injection, schedule: Q01DX005 (ip), vehicle: Klucel (hydroxypropylcellulose) (HPC)): 102 % of control

O=C1OCCCOC(=O)c2cc(ccc2O)OCC#CC#CCOc2ccc(O)c1c2
T/C [17]: 92 % of control | T/C [18]: 97 % of control | T/C (dose: 240.0 mg/kg/injection, schedule: Q01DX005 (ip), vehicle: saline with Tween-80): 97 % of control

— PubChem BioAssay AID330 (DTP/NCI, 2004)
